Data as given in patent publication US20240099302A1, “Use of a Biobased Composition Comprising Ferulated Chitosan for Regulating and Stimulating Plant Growth” (FYTEKO SA, priority 2020, published 2024).

System: new guinea impatient plants cultivar Sony pink
Assay: Effect of foliar spraying on flowering of new guinea impatient plants
Format: in vivo
Conditions: foliar spraying once a week for 8 weeks, evaluated 22 weeks after sowing
Method: Different treatments were applied by foliar spraying on one-month old new guinea impatient plants cultivar Sony pink once a week for 8 weeks. The effect of foliage of application on the inflorescence was evaluated at the end of the flowering step (22 weeks after sowing) and the results are shown in Table 12.

| Compound | Average diameter of the flowers [cm] | Total number of flowers per plant |
| --- | --- | --- |
| COc1cc(/C=C/C(=O)O)ccc1O [Ferulic acid] | 6.40 | 60.0 |
| Diferulic acid | 6.52 | 74.2 |
